In ChEMBL document CHEMBL5728971, “Small molecule inhibitors of lactate dehydrogenase and methods of use thereof” (2022):

Assay: Biochemical Assay: Test compounds were placed in a Greiner Bio-One (Monroe, N.C.) 1536-well black solid bottom assay plate. 200 millimolar (mM) Tris HCl, pH 7.4, 100 micromolar (μM) EDTA and 0.01% TWEEN-20™, final concentration, was used as the assay buffer. The LDHA reagent was 2 nanomolar (nM) Human LDHA (Meridian Life Science, Inc., Memphis, Tenn.), final concentration, in assay buffer.

IC50	Structure (SMILES)
< 100 nM	NS(=O)(=O)c1ccc(Cc2c(-c3ccc(F)c(-c4ccccc4)c3)nn(-c3nc(C(=O)O)cs3)c2CC2CC2)cc1F
< 100 nM	NS(=O)(=O)c1ccc(Cc2c(-c3cccc(OCc4ccccc4)c3)nn(-c3nc(C(=O)O)cs3)c2CC2CC2)cc1F
< 100 nM	NS(=O)(=O)c1ccc(Cc2c(-c3cccc(N4CCC(C(F)(F)F)CC4)c3)nn(-c3nc(C(=O)O)cs3)c2CC2CC2)cc1F
< 100 nM	NS(=O)(=O)c1ccc(Cc2c(-c3ccc(F)c(C4=CCN(C(=O)C5CC5)CC4)c3)nn(-c3nc(C(=O)O)cs3)c2CC2CC2)cc1F
< 100 nM	NS(=O)(=O)c1ccc(Cc2c(-c3cccc(-c4ccc(F)cc4)c3)nn(-c3nc(C(=O)O)cs3)c2C2CC2)c(F)c1
< 100 nM	NS(=O)(=O)c1ccc(Cc2c(-c3ccc(F)c(-c4cccc(CN5CCOCC5)c4)c3)nn(-c3nc(C(=O)O)cs3)c2CC2CC2)cc1F
< 100 nM	NS(=O)(=O)c1ccc(Cc2c(-c3ccc(F)c(CC4CC4)c3)nn(-c3nc(C(=O)O)cs3)c2CC2CC2)cc1F
< 100 nM	NS(=O)(=O)c1ccc(Cc2c(-c3cccc(OCc4ccccc4)c3)nn(-c3nc(C(=O)O)cs3)c2CC2CC2)c(F)c1
< 100 nM	COc1cccc(-c2cccc(-c3nn(-c4nc(C(=O)O)cs4)c(C4CC4)c3Cc3ccc(S(N)(=O)=O)cc3F)c2)c1
< 100 nM	NS(=O)(=O)c1ccc(Cc2c(-c3ccc(F)c(C4=CCNCC4)c3)nn(-c3nc(C(=O)O)cs3)c2CC2CC2)cc1F
in the range around 29000 nM	Cc1ccc(-c2cccc(-c3c(Cc4ccc(S(N)(=O)=O)cc4F)c(C4CC4)nn3-c3nc(C(=O)O)cs3)c2)cc1
< 100 nM	NS(=O)(=O)c1ccc(Cc2c(-c3ccc(F)c(C4CCCCC4)c3)nn(-c3nc(C(=O)O)cs3)c2CC2CC2)cc1F
< 100 nM	NS(=O)(=O)c1ccc(Cc2c(-c3cccc(-c4cccc(F)c4)c3)nn(-c3nc(C(=O)O)cs3)c2CC2CC2)cc1
< 100 nM	NS(=O)(=O)c1ccc(Cc2c(-c3ccc(F)c(-c4ccccc4F)c3)nn(-c3nc(C(=O)O)cs3)c2CC2CC2)cc1F
< 100 nM	NS(=O)(=O)c1ccc(Cc2c(-c3cccc(OCc4ccccc4)c3)nn(-c3nc(C(=O)O)cs3)c2CC2CC2)cc1
< 100 nM	NS(=O)(=O)c1ccc(Cc2c(-c3ccc(F)c(C4CC4)c3)nn(-c3nc(C(=O)O)cs3)c2CC2CC2)cc1F
in the range around 29000 nM	NS(=O)(=O)c1ccc(Cc2c(C3CC3)nn(-c3nc(C(=O)O)cs3)c2-c2cccc(-c3cccc(F)c3)c2)cc1F
in the range around 29000 nM	COc1cccc(-c2cccc(-c3c(Cc4ccc(S(N)(=O)=O)c(F)c4)c(C4CC4)nn3-c3nc(C(=O)O)cs3)c2)c1
> 57000 nM	CCOC(=O)c1csc(-n2nc(-c3cccc(-c4ccc(C)cc4)c3)c(Cc3ccc(S(N)(=O)=O)cc3F)c2CC2CC2)n1
in the range around 29000 nM	Cc1ccc(-c2cccc(-c3c(Cc4ccc(S(N)(=O)=O)c(F)c4)c(C4CC4)nn3-c3nc(C(=O)O)cs3)c2)cc1
< 100 nM	CC(c1ccccc1)c1cc(-c2nn(-c3nc(C(=O)O)cs3)c(CC3CC3)c2Cc2ccc(S(N)(=O)=O)c(F)c2)ccc1F (centres undefined)
< 100 nM	NS(=O)(=O)c1ccc(Cc2c(-c3cccc(-c4cccc(F)c4)c3)nn(-c3nc(C(=O)O)cs3)c2C2CC2)c(F)c1
< 100 nM	NS(=O)(=O)c1ccc(Cc2c(-c3cccc(-c4cccc(F)c4)c3)nn(-c3nc(C(=O)O)cs3)c2CC2CC2)cc1F
in the range around 550 nM	CNS(=O)(=O)c1ccc(Cc2c(-c3ccc(F)c(-c4cccc(F)c4)c3)nn(-c3nc(C(=O)O)cs3)c2CC2CC2)cc1F
< 100 nM	NS(=O)(=O)c1ccc(Cc2c(-c3ccc(F)c(C4CCCC4)c3)nn(-c3nc(C(=O)O)cs3)c2CC2CC2)cc1F

IC50	Structure (SMILES)
< 100 nM	NS(=O)(=O)c1ccc(Cc2c(-c3cccc(S(F)(F)(F)(F)F)c3)nn(-c3nc(C(=O)O)cs3)c2CC2CC2)cc1F
in the range around 29000 nM	CCOC(=O)c1csc(-n2nc(-c3ccc(F)c(-c4ccc(C)cc4)c3)c(Cc3ccc(S(N)(=O)=O)c(F)c3)c2CC2CC2)n1
in the range around 29000 nM	NS(=O)(=O)c1ccc(Cc2c(C3CC3)nn(-c3nc(C(=O)O)cs3)c2-c2cccc(-c3ccc(F)cc3)c2)cc1F
< 100 nM	NS(=O)(=O)c1ccc(Cc2c(-c3cccc(-c4ccc(F)cc4)c3)nn(-c3nc(C(=O)O)cs3)c2C2CC2)cc1F
in the range around 29000 nM	CCOC(=O)c1csc(-n2nc(-c3ccc(F)c(-c4ccc(F)cc4)c3)c(Cc3ccc(S(N)(=O)=O)cc3F)c2CC2CC2)n1
< 100 nM	CC(C)c1cc(-c2nn(-c3nc(C(=O)O)cs3)c(CC3CC3)c2Cc2ccc(S(N)(=O)=O)c(F)c2)ccc1F
in the range around 29000 nM	NS(=O)(=O)c1ccc(Cc2c(C3CC3)nn(-c3nc(C(=O)O)cs3)c2-c2cccc(-c3cccc(F)c3)c2)c(F)c1
in the range around 29000 nM	NS(=O)(=O)c1ccc(Cc2c(C3CC3)nn(-c3nc(C(=O)O)cs3)c2-c2cccc(-c3ccc(F)cc3)c2)c(F)c1
< 100 nM	CN1CCC(c2cc(-c3nn(-c4nc(C(=O)O)cs4)c(CC4CC4)c3Cc3ccc(S(N)(=O)=O)c(F)c3)ccc2F)CC1
> 57000 nM	CCOC(=O)c1csc(-n2nc(-c3cccc(-c4ccccc4)c3)c(Cc3ccc(S(N)(=O)=O)c(F)c3)c2CC2CC2)n1
< 100 nM	NS(=O)(=O)c1ccc(Cc2c(-c3cccc(C4CCCC4)c3)nn(-c3nc(C(=O)O)cs3)c2CC2CC2)cc1
< 100 nM	NS(=O)(=O)c1ccc(Cc2c(-c3cccc(-c4cccc(F)c4)c3)nn(-c3nc(C(=O)O)cs3)c2C2CC2)cc1F
< 100 nM	NS(=O)(=O)c1ccc(Cc2c(-c3ccc(F)c(C4=COCCC4)c3)nn(-c3nc(C(=O)O)cs3)c2CC2CC2)cc1F
< 100 nM	NS(=O)(=O)c1ccc(Cc2c(-c3ccc(F)c(CCCCC(F)(F)F)c3)nn(-c3nc(C(=O)O)cs3)c2CC2CC2)cc1F
in the range around 29000 nM	NS(=O)(=O)c1ccc(Cc2c(CC3CC3)nn(-c3nc(C(=O)O)cs3)c2-c2cccc(OCc3ccccc3)c2)cc1
in the range around 29000 nM	NS(=O)(=O)c1cccc(Cc2c(-c3ccc(F)c(-c4cccc(F)c4)c3)nn(-c3nc(C(=O)O)cs3)c2CC2CC2)c1
in the range around 550 nM	NS(=O)(=O)c1ccc(Cc2c(-c3ccc(F)c(C4C5CC6CC(C5)CC4C6)c3)nn(-c3nc(C(=O)O)cs3)c2CC2CC2)cc1F (centres undefined)
in the range around 29000 nM	COc1cccc(-c2cccc(-c3c(Cc4ccc(S(N)(=O)=O)cc4F)c(C4CC4)nn3-c3nc(C(=O)O)cs3)c2)c1
< 100 nM	NS(=O)(=O)c1ccc(Cc2c(-c3ccc(F)c(C4CCC4)c3)nn(-c3nc(C(=O)O)cs3)c2CC2CC2)cc1F
< 100 nM	CCC(C)(C)c1cc(-c2nn(-c3nc(C(=O)O)cs3)c(CC3CC3)c2Cc2ccc(S(N)(=O)=O)c(F)c2)ccc1F
< 100 nM	Cc1ccc(-c2cccc(-c3nn(-c4nc(C(=O)O)cs4)c(C4CC4)c3Cc3ccc(S(N)(=O)=O)cc3F)c2)cc1
< 100 nM	Cc1ccc(-c2cccc(-c3nn(-c4nc(C(=O)O)cs4)c(C4CC4)c3Cc3ccc(S(N)(=O)=O)c(F)c3)c2)cc1
< 100 nM	NS(=O)(=O)c1ccc(Cc2c(-c3ccc(F)c(C4CCOCC4)c3)nn(-c3nc(C(=O)O)cs3)c2CC2CC2)cc1F
< 100 nM	CC(C)(C)Cc1cc(-c2nn(-c3nc(C(=O)O)cs3)c(CC3CC3)c2Cc2ccc(S(N)(=O)=O)c(F)c2)ccc1F
